The test system of this experiment is Aβ42 levels in the extracellular medium. The experiment is described as follows: FRET (HTRF) assay, Aβ42 level of the extracellular medium of SH-SY5Y-APP cells. It counts as cell-based. To be noted: Homo sapiens, concentration at which reduction of Aβ42 level was half of the maximum reduction, read-out: Ab42 Potency. The method, then:
Compounds were evaluated for activity in modulating Aβ42 and Aβ40 levels in the extracellular medium using a homogeneous time-resolved fluorescence (HTRF) assay as follows.
For the HTRF assay, either 5 or 10 μl of supernatant from treated cells was added to 10 or 15 μl of labeled antibody pairs, for a total volume of 20 μl, and incubated for 20-24 hours at 4° C. The labeled antibody pairs were either 8000 pg B436-XL665 and 400 pg B113 Europium, for assessing Aβ40 levels, or 8000 pg B436-XL665 and 400 pg A387 Europium, for assessing Aβ42 levels, diluted in 50 mM NaPO4, 0.2% BSA, 0.5M KF, pH 7. The fluorescence was read on a BMG Rubystar at 620 nm and 665 nm.
(In TR-FRET formats the signal depends on donor and acceptor labels being close together.)
Take `CCN(CCO)c1ccc(Nc2nc(-c3ccc(-n4ccnc4)cc3)cs2)c(C)c1` [Compound 203]: the EC50 fell in the range of 1.1 to 5 µM.

Take `CN1CCN(c2ccc(-c3csc(Nc4ccc(OC(F)(F)F)c(Cl)c4)n3)cc2)CC1` [Compound 198]: the EC50 fell in the range of 1.1 to 5 µM.

Consider `CCN(CCO)c1ccc(Nc2nc(-c3ccc(-n4cnc(C)c4)cc3OC)cs2)c(C)c1` [Compound 207], for which the EC50 was 1.1 to 5 µM.

As for `CCN(CCO)c1ccc(Nc2nc(-c3ccc(-n4cnc5ccccc54)cc3)cs2)c(C)c1` [Compound 228], the EC50 was 5.1 to 10 µM.

`COc1ccc(Nc2nc(-c3ccc(N4CCCC4)cc3)cs2)cc1OC` [Compound 113]: the EC50 was 5.1 to 10 µM.

Turning to `COc1ccccc1-c1csc(Nc2ccc(Br)cc2)n1` [Compound 130], the EC50 fell in the range of 10.1 to 30 µM.

As for `Cc1ccc(C)c(Nc2nc(-c3ccc(-n4cnc(C)c4)nc3)cs2)c1` [Compound 185], the EC50 was less than 0.2 µM.

With `COc1cc(C)c(Nc2nc(-c3ccc(-n4cnc(C)c4)cc3)cs2)cc1C(C)C` [Compound 295], the EC50 is less than 0.2 µM.

For `CC(C)N(c1ccccc1)c1ccc(Nc2nc(-c3ccc(-n4ccnc4)cc3)cs2)cc1` [Compound 146], the EC50 was 1.1 to 5 µM.

With `FC(F)(F)c1cc(NCc2ccccn2)ccc1Nc1nc(-c2ccc(-n3ccnc3)cc2)cs1` [Compound 223], the EC50 was in the range of 5.1 to 10 µM.

On to `COc1ccc(C)c(Nc2nc(-c3ccc(-n4cnc(C)c4)nc3)cs2)c1` [Compound 197], for which the EC50 was less than 0.2 µM.

Take `CCN(CC)c1ccc(Nc2nc(-c3ccc(-n4cc(C(C)=O)nn4)cc3)cs2)c(C)c1` [Compound 274]: the EC50 is 1.1 to 5 µM.

Regarding `CCN(CC)c1ccc(Nc2nc(-c3ccc(-n4cnc(C)c4)cc3C(F)(F)F)c(C)s2)c(C)c1` [Compound 205], the EC50 lay in the range of 1.1 to 5 µM.

`CN1CCN(c2ccc(-c3csc(Nc4ccc5[nH]ncc5c4)n3)cc2)CC1` [Compound 141]: the EC50 lay within 1.1 to 5 µM.

For the compound `CSc1cccc(Nc2nc(-c3ccc4c(c3)OCCO4)cs2)c1` [Compound 167], the EC50 lay within 5.1 to 10 µM.

Regarding `COc1ccc(-c2csc(Nc3cccc(Cl)c3)n2)c(OC)c1` [Compound 153], the EC50 is 5.1 to 10 µM.

Turning to `Cc1cn(-c2ccc(-c3nc(Nc4cc(C)c(C)cc4C)sc3C)cc2Br)cn1` [Compound 243], the EC50 lay in the range of 1.1 to 5 µM.

Regarding `CSc1ccccc1Nc1nc(-c2ccc(N3CCN(C)CC3)cc2)cs1` [Compound 196], the EC50 is 5.1 to 10 µM.

In the case of `COc1ccc(-c2coc(Nc3ccccc3)n2)cc1` [Compound 338], the EC50 fell in the range of 10.1 to 30 µM.

Consider `CCN(c1ccc(N2CCCCC2)cc1)c1nc(-c2ccc(-n3ccnc3)cc2)cs1` [Compound 184], for which the EC50 fell in the range of 1.1 to 5 µM.

With `CN(C)S(=O)(=O)c1ccc(-c2csc(Nc3ccc(Cl)cc3)n2)cc1` [Compound 149], the EC50 is 5.1 to 10 µM.

As to `CN1CCC(CNc2ccc(Nc3nc(-c4ccc(-n5ccnc5)cc4)cs3)c(C(F)(F)F)c2)CC1` [Compound 216], the EC50 was in the range of 5.1 to 10 µM.

Take `CCN(CC)c1cc(Nc2nc(-c3cnc(-n4cnc(C)c4)nc3)cs2)c(C)cc1C` [Compound 343]: the EC50 was less than 0.2 µM.

Consider `Cc1cn(-c2ccc(-c3csc(Nc4cc(N(C)CC5CC5)ccc4C)n3)cn2)cn1` [Compound 306], for which the EC50 was less than 0.2 µM.

In the case of `CN1CCN(c2ccc(-c3csc(Nc4ccc(Cl)c(Cl)c4)n3)cc2)CC1` [Compound 139], the EC50 was 0.2 to 1 µM.

On to `CCN(CCOC)c1ccc(Nc2nc(-c3ccc(-n4cnc(C)c4)cc3)cs2)c(C)c1` [Compound 231], for which the EC50 lay within 0.2 to 1 µM.

Take `COc1cc(C)c(Nc2nc(-c3ccc(-n4cnc(C)c4)cc3)cs2)cc1OC` [Compound 267]: the EC50 lay within 1.1 to 5 µM.

Regarding `COc1cc(Nc2nc(-c3ccc(OC(F)F)cc3)cs2)cc(OC)c1OC` [Compound 109], the EC50 was in the range of 10.1 to 30 µM.

As for `Cc1cn(-c2ccc(-c3csc(Nc4cc(C)c(C)cc4C)n3)cc2)cn1` [Compound 235], the EC50 is 0.2 to 1 µM.

With `CCN(CC)c1ccc(C)c(Nc2nc(-c3ccc(-n4cnc(C)c4)c(F)c3)cs2)c1` [Compound 309], the EC50 was less than 0.2 µM.

With `CCN1CCN(c2ccc(-c3csc(Nc4ccc5c(c4)OCO5)n3)cc2)CC1` [Compound 162], the EC50 is 1.1 to 5 µM.

As to `Cc1cc(N2CCN(C)CC2)ccc1Nc1nc(-c2ccc(-n3ccnc3)cc2)cs1` [Compound 200], the EC50 fell in the range of 1.1 to 5 µM.

As for `CCN(CC)c1ccc(C)c(Nc2nc(-c3ccc(-n4cnc(C)c4)cc3)cs2)c1` [Compound 268], the EC50 was less than 0.2 µM.

For the compound `CCN(CCO)c1ccc(Nc2nc(-c3ccc(-n4cnc(C)c4)cc3)cs2)c(C)c1` [Compound 204], the EC50 lay within 0.2 to 1 µM.

As for `Oc1ccc(Nc2nc(-c3ccc4c(c3)OCO4)cs2)cc1` [Compound 118], the EC50 was in the range of 5.1 to 10 µM.

As for `CN1CCN(c2ccc(-c3csc(Nc4ccc(N(C)C)cc4)n3)cc2)CC1` [Compound 117], the EC50 lay in the range of 5.1 to 10 µM.

Consider `CCN(CC)c1cc(C)c(Nc2nc(-c3ccc(-n4cnc(C)c4)cc3)cs2)cc1C` [Compound 285], for which the EC50 is less than 0.2 µM.

Take `CN1CCN(c2ccc(-c3csc(Nc4ccc5c(c4)OCCO5)n3)cc2)CC1` [Compound 134]: the EC50 was in the range of 1.1 to 5 µM.

As to `CCCCN(CC)c1ccc(C)c(Nc2nc(-c3ccc(-n4cnc(C)c4)nc3)cs2)c1` [Compound 317], the EC50 was 0.2 to 1 µM.

On to `CN1CCN(c2ccc(-c3csc(Nc4ccc(Oc5ccccc5)cc4)n3)cc2)CC1` [Compound 142], for which the EC50 lay in the range of 1.1 to 5 µM.

For `Cc1cn(-c2ccc(-c3csc(Nc4cc(N(C)CC5CC5)ccc4C)n3)cc2F)cn1` [Compound 315], the EC50 is less than 0.2 µM.

As for `CCOc1ccc(Nc2nc(-c3ccc(N4CCN(C)CC4)cc3)cs2)cc1` [Compound 136], the EC50 lay within 10.1 to 30 µM.

Turning to `Cc1ccc(N2CCCCC2)cc1Nc1nc(-c2ccc(-n3ccnc3)cc2)cs1` [Compound 252], the EC50 lay in the range of 1.1 to 5 µM.

For `CCN(CC)c1ccc(-c2csc(Nc3ccc(O)cc3)n2)cc1` [Compound 123], the EC50 is 10.1 to 30 µM.

Consider `CN1CCN(c2ccc(-c3csc(Nc4ccc(Br)cc4)n3)cc2)CC1` [Compound 138], for which the EC50 was 10.1 to 30 µM.

Consider `Cc1ccc(C)c(Nc2nc(-c3ccc(-n4ccnc4)cc3)cs2)c1` [Compound 302], for which the EC50 is 0.2 to 1 µM.

Regarding `COc1ccc(-c2csc(Nc3ccc(N(C)C)cc3)n2)c(OC)c1` [Compound 114], the EC50 fell in the range of 0.2 to 1 µM.

With `COc1ccc(Nc2nc(-c3ccc(Cl)cc3)co2)cc1` [Compound 339], the EC50 lay in the range of 1.1 to 5 µM.

Consider `CN1CCN(c2ccc(-c3csc(Nc4cccc5cccnc45)n3)cc2)CC1` [Compound 128], for which the EC50 was 1.1 to 5 µM.

Consider `c1cn(-c2ccc(-c3csc(Nc4ccc5[nH]ccc5c4)n3)cc2)cn1` [Compound 143], for which the EC50 fell in the range of 1.1 to 5 µM.

For `CCN(C)c1cc(Nc2nc(-c3ccc(-n4cnc(C)c4)cc3)cs2)c(C)cc1C` [Compound 335], the EC50 is less than 0.2 µM.

Turning to `Cc1cc(C)cc(Nc2nc(-c3ccc(-n4cnc(-c5ccccc5)c4)cc3)cs2)c1` [Compound 178], the EC50 is 10.1 to 30 µM.

With `FC(F)(F)c1cc(NC2CCCC2)ccc1Nc1nc(-c2ccc(-n3ccnc3)cc2)cs1` [Compound 220], the EC50 lay in the range of 10.1 to 30 µM.

For `CN1CCN(c2ccc(-c3csc(Nc4ccc(Cl)c(Cl)c4)n3)cn2)CC1` [Compound 330], the EC50 was in the range of 1.1 to 5 µM.

With `Cc1ccc(NCC2CCN(C)CC2)cc1Nc1nc(-c2ccc(-n3ccnc3)cc2)cs1` [Compound 256], the EC50 lay in the range of 1.1 to 5 µM.

Regarding `CCOc1cc(C)c(Nc2nc(-c3ccc(-n4ccnc4)cc3)cs2)cc1C` [Compound 290], the EC50 is less than 0.2 µM.

As to `CCN(CCOC)c1ccc(Nc2nc(-c3ccc(-n4cnc(C)c4)nc3)cs2)c(C)c1` [Compound 261], the EC50 fell in the range of 0.2 to 1 µM.

With `CCN(CC)c1ccc(Nc2nc(-c3ccc(-n4ccnc4)cc3)cs2)c(C)c1` [Compound 133], the EC50 was in the range of 0.2 to 1 µM.

Consider `CNCCN(C)c1ccc(C)c(Nc2nc(-c3ccc(-n4ccnc4)cc3)cs2)c1` [Compound 258], for which the EC50 is 1.1 to 5 µM.

As to `COc1ccc(OC)c(Nc2nc(-c3ccc(-n4cnc(C)c4)cc3)cs2)c1` [Compound 264], the EC50 lay within 0.2 to 1 µM.

For the compound `Cc1ccc(N2CCSCC2)cc1Nc1nc(-c2ccc(-n3ccnc3)cc2)cs1` [Compound 254], the EC50 was in the range of 0.2 to 1 µM.

On to `COc1ccc(-c2csc(Nc3ccc(Br)cc3)n2)c(OC)c1` [Compound 129], for which the EC50 lay in the range of 0.2 to 1 µM.

Turning to `Cc1cc(NCc2ccccn2)ccc1Nc1nc(-c2ccc(-n3ccnc3)cc2)cs1` [Compound 208], the EC50 lay in the range of 5.1 to 10 µM.

On to `Cc1cn(-c2ccc(-c3csc(Nc4cc(-n5cccc5)ccc4C)n3)cc2)cn1` [Compound 293], for which the EC50 was in the range of 0.2 to 1 µM.

Take `CN1CCN(c2ccc(Nc3nc(-c4ccc(-n5ccnc5)cc4)cs3)c(C(F)(F)F)c2)CC1` [Compound 215]: the EC50 is 1.1 to 5 µM.

With `CCN(CC)c1ccc(C)c(Nc2nc(-c3ccc(-n4ccnc4)cc3)cs2)c1` [Compound 265], the EC50 is less than 0.2 µM.

Regarding `Cc1cnn(-c2ccc(-c3nc(Nc4c(Cl)cc(Cl)cc4Cl)sc3C)cc2)c1` [Compound 246], the EC50 lay within 1.1 to 5 µM.

Turning to `CCCN(C)c1ccc(C)c(Nc2nc(-c3ccc(-n4cnc(C)c4)cc3)cs2)c1` [Compound 348], the EC50 was less than 0.2 µM.

Turning to `Oc1ccc(Nc2nc(-c3ccc(-c4ccccc4)cc3)cs2)cc1` [Compound 121], the EC50 lay in the range of 5.1 to 10 µM.

Take `CCN(CC)CCN(C)c1ccc(Nc2nc(-c3ccc(-n4ccnc4)cc3)cs2)c(C(F)(F)F)c1` [Compound 219]: the EC50 fell in the range of 1.1 to 5 µM.

Turning to `COc1ccc(-c2csc(Nc3ccc(I)cc3)n2)c(OC)c1` [Compound 125], the EC50 lay within 1.1 to 5 µM.

Regarding `Cc1ccc(-n2cccc2)cc1Nc1nc(-c2ccc(N3CCN(C)CC3)cc2)cs1` [Compound 323], the EC50 was 1.1 to 5 µM.

Source of the values: patent publication US8017629B2, “Compounds and uses thereof in modulating amyloid β” (Neurogenetic Pharmaceuticals, Inc., priority 2003, dated 2011).
